Structures can show the parent of a compound that is named as a salt.
Experiments:
[1] = target: T1, human MCH-1 receptor (Homo sapiens, UniProt Q99705); experiment: Ca2+ mobilization experiment for the MCH-1 receptor (FLIPR), inhibition of MCH-induced Ca2+ mobilization; type: cell-based; details: CHO cells stably expressing human MCH-1 receptor, inhibition of MCH-induced Ca2+ response, read-out: MCH-1 pIC50 (converted)
T1 construct: expressed in transfected cells
Procedure, shortened: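 Calcium-dye loading (kit with probenecid) of CHO cells stably expressing human MCH-1 ran 90 min at 37C. Cells were then preincubated with compound for 20 min at RT before a submaximal MCH challenge, and Ca2+ was recorded by FLIPR. Responses were expressed as % of compound-free response, and pIC50 came from sigmoidal fits.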

[2] = target: T2, MCH-1 receptor (Rattus norvegicus, UniProt P97639); details: rodents tests; Nat. Med. (2002) 8, 825-830; cited from earlier work
T2 construct: host or cells: rodents in vivo
T2 sequence (P97639 whole entry): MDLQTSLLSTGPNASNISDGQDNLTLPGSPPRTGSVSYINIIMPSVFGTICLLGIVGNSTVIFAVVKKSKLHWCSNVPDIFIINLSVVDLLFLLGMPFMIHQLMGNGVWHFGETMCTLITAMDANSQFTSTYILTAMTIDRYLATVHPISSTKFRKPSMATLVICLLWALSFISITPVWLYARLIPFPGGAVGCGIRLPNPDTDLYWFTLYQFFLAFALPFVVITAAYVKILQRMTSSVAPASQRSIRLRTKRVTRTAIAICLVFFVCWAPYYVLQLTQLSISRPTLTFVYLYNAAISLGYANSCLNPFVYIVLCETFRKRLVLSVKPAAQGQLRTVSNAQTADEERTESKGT

T1 sequence (Q99705 whole entry): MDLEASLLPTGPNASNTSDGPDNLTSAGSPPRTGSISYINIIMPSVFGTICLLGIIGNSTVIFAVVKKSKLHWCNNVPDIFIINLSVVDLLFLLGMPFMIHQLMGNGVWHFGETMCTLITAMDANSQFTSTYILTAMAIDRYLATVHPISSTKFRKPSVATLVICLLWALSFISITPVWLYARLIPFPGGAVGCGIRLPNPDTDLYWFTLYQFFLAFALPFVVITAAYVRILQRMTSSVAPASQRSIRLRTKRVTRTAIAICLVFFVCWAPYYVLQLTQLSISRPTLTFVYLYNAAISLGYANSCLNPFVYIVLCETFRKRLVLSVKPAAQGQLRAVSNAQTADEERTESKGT

| Compound | melting point [°C] | IC50 [1] [µM] | antidepressant- and anxiolytic-like effects [2] |
| --- | --- | --- | --- |
| COc1cc(-n2ccnc(NCCOc3ccccc3)c2=O)ccc1OCCN1CCCC1 (as salt: HCl) [1-67] | 198.7 |  |  |
| COc1cc(-n2ccnc(NCCOc3ccccc3)c2=O)ccc1OCCN1CCC(F)CC1 (as salt: HCl) [1-70] | 234.9 |  |  |
| CN(CCO)CCOc1ccc(-n2ccnc(NCCOc3ccccc3)c2=O)cc1 [1-26] | 103.6 | 0.251 |  |
| CC(=O)N(C)CCOc1ccc(-n2ccnc(NCCOc3ccccc3)c2=O)cc1 [1-30] | 105.9 | 0.501 |  |
| O=c1c(NCCOc2ccccc2)nccn1-c1ccc(OCCN2CCOCC2)cc1 [1-44] | 138.1 | 0.501 |  |
| O=c1c(NCCc2ccccc2)nccn1-c1ccc(OCCN2CCCC2)c(Cl)c1 [2-03] | 120.2 | 0.0316 |  |
| COc1cc(-n2ccnc(NCCc3ccccc3)c2=O)ccc1OCCN1CCCC1 [2-04] | 101.1 | 0.0398 |  |
| COc1cc(-n2ccnc(SCCc3ccccc3)c2=O)ccc1OCCN1CCCC1 [2-11] | 79.4 | 0.02 |  |
| COc1cc(-n2ccnc(NCCc3ccccc3)c2=O)ccc1N1CCC(N2CCOCC2)C1 (stereo not shown) [3-21] | > 300 | 0.0794 |  |
| COc1cc(-n2ccnc(NCCc3ccccc3)c2=O)ccc1NCCCN1CCOCC1 [3-30] | > 300 | 0.0631 |  |
| COc1cc(-n2ccnc(NCCc3ccccc3)c2=O)ccc1OC1CCNC1 (stereo not shown) [3-31] | 151.6 | 0.0398 |  |
| O=c1c(NCCc2ccccc2)nccn1-c1ccc(OCCN2CCC(O)CC2)c(Cl)c1 [3-81] | 151.2 | 0.0251 |  |
| CC(=O)N1CCN(CCOc2ccc(-n3ccnc(NCCc4ccccc4)c3=O)cc2Cl)CC1 [3-83] | 121.8 | 0.0501 |  |
| CC(=O)N(C)C1CCN(c2ccc(-n3ccnc(NCCOc4ccccc4)c3=O)cn2)C1 (stereo not shown) [3-88] |  | 0.794 |  |
| O=c1c(NCCOc2ccccc2)nccn1-c1ccc(OCCN2CCCC2)nc1 [3-91] |  | 3.98 |  |
| O=c1c(NCCc2ccccc2)nccn1-c1ccc2c(c1)OCC(CN1CCOCC1)=C2 [3-92] |  | 0.0794 |  |
| COc1cc(-n2ccnc(N3CCCC(c4ccccc4)C3)c2=O)ccc1OCCN1CCCC1 (stereo not shown) [4-01] |  | 1.26 |  |
| COc1cc(-n2ccnc(N3CCC(Oc4ccccc4)CC3)c2=O)ccc1OCCN1CCCC1 [4-02] |  | 0.631 |  |
| COc1cc(-n2ccnc(N3CCCC(c4ccc(F)cc4)C3)c2=O)ccc1OCCN1CCCC1 (stereo not shown) [4-03] |  | 2 |  |
| COc1cc(-n2ccnc(N3CCC(c4ccc(C)cc4)C3)c2=O)ccc1OCCN1CCCC1 (stereo not shown) [4-04] |  | 0.316 |  |
| COc1cc(-n2ccnc(N3CCC(c4cccc(C(F)(F)F)c4)C3)c2=O)ccc1OCCN1CCCC1 (stereo not shown) [4-05] |  | 2 |  |
| COc1cc(-n2ccnc(N3CCC(c4ccccc4OC)C3)c2=O)ccc1OCCN1CCCC1 (stereo not shown) [4-06] |  | 6.31 |  |
| COc1cccc(C2CCN(c3nccn(-c4ccc(OCCN5CCCC5)c(OC)c4)c3=O)C2)c1 (stereo not shown) [4-07] |  | 0.631 |  |
| COc1cc(-n2ccnc(N3CCC(c4ccc(Cl)c(Cl)c4)C3)c2=O)ccc1OCCN1CCCC1 (stereo not shown) [4-08] |  | 0.794 |  |

| Compound | melting point [°C] | IC50 [1] [µM] | antidepressant- and anxiolytic-like effects [2] |
| --- | --- | --- | --- |
| COc1cc(-n2ccnc(SCCc3ccccc3)c2=O)ccc1N1CCC(O)C1 (stereo not shown) [6-01] |  | 0.0398 |  |
| CN[C@H]1CCN(c2ccc(-n3ccnc(SCCc4ccccc4)c3=O)cc2OC)C1 [6-02] |  | 0.01 |  |
| CN[C@@H]1CCN(c2ccc(-n3ccnc(SCCc4ccccc4)c3=O)cc2OC)C1 [6-03] |  | 0.0126 |  |
| CNC1CCN(c2ccc(-n3ccnc(SCCc4ccccc4)c3=O)cc2OC)C1 (stereo not shown) [6-04] | 113.2 | 0.0251 |  |
| COc1cc(-n2ccnc(SCCc3ccccc3)c2=O)ccc1N1CC[C@H](N(C)C)C1 [6-05] |  | 0.0126 |  |
| COc1cc(-n2ccnc(SCCc3ccccc3)c2=O)ccc1N1CC[C@@H](N(C)C)C1 [6-06] |  | 0.0158 |  |
| COc1cc(-n2ccnc(SCCc3ccccc3)c2=O)ccc1N1CCC(N(C)C)C1 (stereo not shown) [6-07] | 126.5 | 0.02 |  |
| COc1cc(-n2ccnc(SCCc3ccccc3)c2=O)ccc1N1CCC(N(C)C(C)=O)C1 (stereo not shown) [6-08] | 105.5 | 0.0316 |  |
| COc1cc(-n2ccnc(SCCc3ccccc3)c2=O)ccc1N1CCC(N2C(C)CCCC2C)C1 (stereo not shown) [6-09] |  | 0.0316 |  |
| COc1cc(-n2ccnc(SCCc3ccccc3)c2=O)ccc1N1CCOCC1 [6-10] |  | 0.0631 |  |
| COc1cc(-n2ccnc(SCCc3ccccc3)c2=O)ccc1N1CCC(O)CC1 [6-11] |  | 0.126 |  |
| COc1cc(-n2ccnc(SCCc3ccccc3)c2=O)ccc1C=CCN1CCCC1 [6-12] |  | 0.0251 |  |
| COc1cc(-n2ccnc(SCCc3ccccc3)c2=O)ccc1C=CCN1CCOCC1 [6-13] |  | 0.02 |  |
| COc1cc(-n2ccnc(SCCc3ccccc3)c2=O)ccc1OC1CCNC1 (stereo not shown) [6-14] |  | 0.1 |  |
| COc1cc(-n2ccnc(SCCc3ccccc3)c2=O)ccc1OC1CCN(C)C1 (stereo not shown) [6-15] |  | 0.0158 |  |
| COc1cc(-n2ccnc(SCCc3ccccc3)c2=O)ccc1OC1CCN(C(C)C)C1 (stereo not shown) [6-16] |  | 0.0251 |  |
| CCCN1CCC(Oc2ccc(-n3ccnc(SCCc4ccccc4)c3=O)cc2OC)C1 (stereo not shown) [6-17] |  | 0.0158 |  |
| COc1cc(-n2ccnc(SCCc3ccccc3)c2=O)ccc1NC(=O)CN1CCCC1 [6-18] | > 300 | 0.316 |  |
| COc1cc(-n2ccnc(NCCCOc3ccccc3)c2=O)ccc1OC1CCNCC1 [7-01] |  | 0.0316 |  |
| COc1cc(-n2ccnc(NCCCOc3ccccc3)c2=O)ccc1OC1CCN(C(=O)OC(C)(C)C)CC1 [7-02] |  | 0.126 |  |
| COc1cc(-n2ccnc(NCCCOc3ccccc3)c2=O)ccc1OCCN(C)C(C)=O [7-03] |  | 0.0316 |  |
| O=c1c(NCCc2ccccc2)nccn1CCc1ccc(CN2CCCC2)cc1 [9-01] | 177 | 0.02 |  |
| O=c1c(NCCc2ccccc2)nccn1CCc1ccc(CN2CCOCC2)cc1 [9-02] |  | 0.0398 |  |
| COCC1=C(C(=O)OC)[C@H](c2ccc(F)c(F)c2)N(C(=O)NCCCN2CCC(c3cccc(NC(C)=O)c3)CC2)C(=O)N1 [SNAP-7941] |  |  | antidepressant- and axiolytic-like affects |
